Measured values as given in patent publication US8478395B2, “Method of measuring electrical resistance value of corneal trans-epithelium” (Nagasaki University, priority 2008, dated 2013).

Key:
cornea of a rabbit = assay: Living corneal TER measurement using anterior chamber centesis (anterior chamber centesis method); assay type: in vivo; conditions: 0.02% BAC
Description: Evaluation of Corneal Disorder Due to BAC by Living Corneal TER Measurement Using Anterior Chamber Centesis (Referred to as “Anterior Chamber Centesis Method”)
In accordance with the method described in non-Patent Document 4 supra, electrodes were placed on a cornea and into an anterior chamber of a rabbit, and after administration of 0.02% BAC, a corneal TER was measured.

[1] = system: cornea of a living rabbit; assay: Corneal TER measurement with the integrated TER measuring device of FIG. 6; assay type: in vivo, Japanese white rabbit; conditions: 0.02% BAC dropped onto the eye, one minute after the administration, device of FIG. 6, n=3
From the text: A silver electrode and a silver-silver chloride electrode having a diameter of 1 mm were placed on a round cover glass having a diameter of 12 mm. PDMS having a circular cylinder shape with 10 mm in diameter and 6 mm in inner diameter and having a curvature radius of the corneal contact surface of 7.9 mm was secured onto the cover glass by using an adhesive. An Eppendorf tube was attached to a rear side (on the side opposite to the corneal contact surface (cover glass side)) for mount onto a slit-lamp. The inner space of the PDMS was filled with an atelocollagen gel and its curvature radius was adjusted to 7.9 mm.
A silver electrode and a silver chloride electrode having a diameter of 1 mm were placed on a PET sheet of 0.005×0.5×1 cm, at position of 1 mm from the distal end of the sheet on the eyeball side. The PET sheet, the silver electrode and the silver chloride electrode were thinly coated with a collagen gel. […]
By using thus prepared TER measuring device, a change in the corneal TER of a living rabbit was measured. […]
A 0.02% BAC was dropped onto the eye of the rabbit, and the resulting TER value was compared with the TER value before the administration. […] Prior to the BAC administration (indicated as “normal cornea” in FIG. 7) as well as after the BAC administration, within one second after the device was contacted with the cornea, a stable TER value could be measured.

[2] = system: cornea of a living rabbit; assay: Living corneal TER measurement requiring no anterior chamber centesis (conjunctival sac method); assay type: in vivo; conditions: 0.02% BAC
Description: Evaluation of Corneal Disorder Due to BAC by Living Corneal TER Measurement Requiring No Anterior Chamber Centesis (Referred to as Conjunctival Sac Method) (FIG. 1)
Silver-silver chloride electrode having a rod shape was placed on a cornea and into a conjunctival sac of a living rabbit, and a 0.02% BAC was administered thereto. A change in the corneal TER due to exposure to BAC was measured by a voltage-electric resistance value measuring device. A rubber ring (6 mm in the inner diameter) was fixed onto the cornea around the periphery of the electrode by using a bioadhesive (Aron alpha A from Sankyo Co., Ltd.) for insulation, so that an electric current is surely passed through the epithelium of the cornea. An AC current of ±20 μA was flowed, and a change curve of TER, a reduction of TER and a TER value after a lapse of 60 seconds from the exposure to 0.02% BAC, were compared with those from the conventional measuring method in which the anterior chamber centesis was carried out (comparative example 1). The TER value was calculated by subtracting an electric resistance value between the anterior chamber and the conjunctival sac obtained in a preliminary experiment from the measured value.

benzalkonium chloride [BAC]
TER (TER before the administration of the BAC set to 100%) (cornea of a rabbit; 60 seconds after the administration): 19.7±5.9% | TER value (cornea of a rabbit; after a lapse of 60 seconds): 138±10 Ωcm^2 | Change of TER compared with the TER value before the administration [1]: significantly reduced | TER value ([2]; after a lapse of 60 seconds): 175±14 Ωcm^2 | TER (TER before the administration of the BAC set to 100%) ([2]; after a lapse of 60 seconds, p<0.01): 13.5±2.1% | TER (TER before the administration of the BAC set to 100%) ([2]; ten seconds after the administration): 35.1±6.8%
